The values that follow come from patent US8173635B2, “Kinase inhibitors” (Vertex Pharmaceuticals Incorporated, priority 2007, dated 2012).

Assay type in all cases: biochemical
One experiment addresses PKC alpha kinase (Homo sapiens, UniProt P17252). Put plainly: PKC alpha kinase inhibition, coupled-enzyme NADH absorbance assay (Ki). Particulars: 130 μM ATP, 4.5 nM PKC alpha, 30° C.; read-out: Ki PKC alpha. As to the method:
An assay buffer solution was prepared which consisted of 100 mM HEPES (pH 7.5), 10 mM MgCl2, 25 mM NaCl, 0.1 mM EDTA, 100 μM CaCl2 and 0.01% Brij. […] To 16 μL of this enzyme buffer, in a 384 well plate, was added 1 μL of VRT stock solution in DMSO. The mixture was allowed to equilibrate for 10 mins at 30° C. The enzyme reaction was initiated by the addition of 16 μL stock ATP solution prepared in assay buffer to a final assay concentration of 130 μM. Initial rate data was determined from the rate of change of absorbance at 340 nm (corresponding to stoichiometric consumption of NADH) using a Molecular Devices Spectramax plate reader (Sunnyvale, Calif.) over 15 mins at 30° C. […] Ki values were calculated from initial rate data by non-linear regression using the Prism software package (Prism 4.0a, Graphpad Software, San Diego, Calif.).

A further experiment concerns the target PKC theta kinase (Homo sapiens, UniProt Q04759). Put plainly: PKC theta kinase inhibition, coupled-enzyme NADH absorbance assay (Ki). Particulars: 240 μM ATP, 18 nM PKC theta, 30° C.; read-out: Ki PKC theta. As to the method:
An assay buffer solution was prepared which consisted of 100 mM HEPES (pH 7.5), 10 mM MgCl2, 25 mM NaCl, 0.1 mM EDTA and 0.01% Brij. […] To 60 μL of this enzyme buffer, in a 384 well plate, was added 2 μL of VRT stock solution in DMSO. The mixture was allowed to equilibrate for 10 mins at 30° C. […] Ki values were calculated from initial rate data by non-linear regression using the Prism software package (Prism 4.0a, Graphpad Software, San Diego, Calif.).

A further experiment concerns the target PKC delta kinase (Homo sapiens, UniProt Q05655). Put plainly: PKC delta kinase inhibition, coupled-enzyme NADH absorbance assay (Ki). Particulars: 150 μM ATP, 46 nM PKC delta, 30° C.; read-out: Ki PKC delta. As to the method: An assay buffer solution was prepared which consisted of 100 mM HEPES (pH 7.5), 10 mM MgCl2, 25 mM NaCl, 0.1 mM EDTA and 0.01% Brij. […] To 16 μL of this enzyme buffer, in a 384 well plate, was added 1 μL of VRT stock solution in DMSO. The mixture was allowed to equilibrate for 10 mins at 30° C. […] Ki values were calculated from initial rate data by non-linear regression using the Prism software package (Prism 4.0a, Graphpad Software, San Diego, Calif.).

SMILES strings stand for the structures. pKi: −log10 of the molar value.

PKC delta kinase, sequence (Q05655 whole entry): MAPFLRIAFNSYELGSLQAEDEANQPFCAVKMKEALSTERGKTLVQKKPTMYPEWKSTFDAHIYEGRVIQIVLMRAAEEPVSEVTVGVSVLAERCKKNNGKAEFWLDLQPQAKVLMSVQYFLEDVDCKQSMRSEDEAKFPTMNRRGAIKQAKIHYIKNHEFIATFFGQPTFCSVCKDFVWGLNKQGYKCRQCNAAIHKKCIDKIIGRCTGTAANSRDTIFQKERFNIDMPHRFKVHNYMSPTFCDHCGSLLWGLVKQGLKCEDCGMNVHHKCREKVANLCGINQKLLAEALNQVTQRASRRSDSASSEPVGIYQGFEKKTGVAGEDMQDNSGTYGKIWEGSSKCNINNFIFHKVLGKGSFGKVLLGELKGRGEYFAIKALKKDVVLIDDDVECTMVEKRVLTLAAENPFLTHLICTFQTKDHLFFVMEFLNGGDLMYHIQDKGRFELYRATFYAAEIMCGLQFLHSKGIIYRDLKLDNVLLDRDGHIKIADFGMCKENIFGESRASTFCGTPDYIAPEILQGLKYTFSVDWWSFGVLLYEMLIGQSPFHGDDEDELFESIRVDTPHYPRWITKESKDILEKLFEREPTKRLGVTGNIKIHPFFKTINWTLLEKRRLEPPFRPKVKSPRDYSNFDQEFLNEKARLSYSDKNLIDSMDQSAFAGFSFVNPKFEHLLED
PKC theta kinase, sequence (Q04759 whole entry): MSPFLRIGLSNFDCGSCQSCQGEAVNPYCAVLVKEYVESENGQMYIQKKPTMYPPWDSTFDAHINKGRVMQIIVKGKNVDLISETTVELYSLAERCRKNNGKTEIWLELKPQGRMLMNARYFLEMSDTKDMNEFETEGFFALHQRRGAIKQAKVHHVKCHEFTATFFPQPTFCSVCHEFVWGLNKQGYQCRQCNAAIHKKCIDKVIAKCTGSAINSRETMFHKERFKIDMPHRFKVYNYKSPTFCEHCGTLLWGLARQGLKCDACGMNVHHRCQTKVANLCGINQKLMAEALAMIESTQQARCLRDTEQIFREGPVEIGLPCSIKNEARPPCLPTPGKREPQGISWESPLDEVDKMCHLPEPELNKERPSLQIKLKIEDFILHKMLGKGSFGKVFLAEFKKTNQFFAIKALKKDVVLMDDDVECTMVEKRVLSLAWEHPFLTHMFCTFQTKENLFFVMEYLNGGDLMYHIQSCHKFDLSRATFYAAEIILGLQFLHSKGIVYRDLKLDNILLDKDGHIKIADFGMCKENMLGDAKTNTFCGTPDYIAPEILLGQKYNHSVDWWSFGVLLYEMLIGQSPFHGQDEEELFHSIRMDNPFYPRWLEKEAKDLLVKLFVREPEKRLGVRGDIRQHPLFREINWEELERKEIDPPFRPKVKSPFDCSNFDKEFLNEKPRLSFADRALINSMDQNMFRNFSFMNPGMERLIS

Regarding `CC(C)(C#N)c1cccc(-c2ccnc3[nH]ncc23)n1` [Compound 1, 2-(6-(1H-pyrazolo[3,4-b]pyridin-4-yl)pyridin-2-yl)-2-methylpropanenitrile], the pKi at PKC alpha kinase is above 6.30; at PKC theta kinase, above 7.30; at PKC delta kinase, above 6.30.
On to `N#CC1(c2cccc(-c3ccnc4[nH]ncc34)n2)CCNCC1` [Compound 2], for which the pKi on PKC theta kinase was above 7.30; on PKC delta kinase, above 6.30.
For `N#CC1(c2cccc(-c3ccnc4[nH]ncc34)n2)CCNC1` (centres unmarked) [Compound 3], the pKi at PKC theta kinase is above 7.30; at PKC delta kinase it was above 6.30.
The corresponding values for `CC(C)(C#N)c1cccc(-c2ccnc3[nH]ncc23)c1` [Compound 4, 2-(3-(1H-pyrazolo[3,4-b]pyridin-4-yl)phenyl)-2-methylpropanenitrile] are above 7.30 and above 5.55.
The corresponding values for `Cc1cc(-c2ccnc3[nH]ncc23)cc(C(C)(C)C#N)c1` [Compound 5] are above 7.30 and above 5.55.
Consider `N#CC1(c2cccc(-c3ccnc4[nH]ncc34)c2)CCNCC1` [Compound 6], for which the figures for the pKi at PKC theta kinase and on PKC delta kinase were above 6.30 and above 5.55, respectively.
On to `CC(=O)N1CCN(c2cc(-c3ccnc4[nH]ncc34)cc(C(C)(C)C#N)c2)CC1` [Compound 7], for which the pKi at PKC theta kinase and at PKC delta kinase was below 5.55 in each case.
As to `CC(C)(C#N)c1cc(-c2ccnc3[nH]ncc23)cc(N2CCNCC2)c1` [Compound 8], the figures for the pKi on PKC theta kinase and on PKC delta kinase were above 6.30 and below 5.55, respectively.
Consider `CC(C)(C#N)c1cc(-c2ccnc3[nH]ncc23)cc(N2CCCCC2)c1` [Compound 9], for which the pKi at PKC theta kinase is above 5.55.
Consider `CC(C)(C#N)c1cc(Nc2ccccc2)cc(-c2ccnc3[nH]ncc23)c1` [Compound 10], for which the pKi on PKC theta kinase was above 6.30; on PKC delta kinase, below 5.55.
For the compound `CC(C)(C#N)c1cc(-c2ccnc3[nH]ncc23)cc(N2CCC2)c1` [Compound 11], the pKi was below 5.55 on PKC alpha kinase, above 6.30 at PKC theta kinase and below 5.55 at PKC delta kinase.
As for `CC(C)(C#N)c1cc(NCc2ccccc2)cc(-c2ccnc3[nH]ncc23)c1` [Compound 12], the pKi at PKC theta kinase is above 5.55.
For `CC(C)(C#N)c1cc(N)cc(-c2ccnc3[nH]ncc23)c1` [Compound 13], the figures for the pKi on PKC alpha kinase, at PKC theta kinase and at PKC delta kinase were above 5.55, above 6.30 and above 5.55, respectively.
Regarding `CC(C)(C#N)c1cc(NC2CNC2)cc(-c2ccnc3[nH]ncc23)c1` [Compound 14], on PKC theta kinase, the pKi is above 6.30.
Consider `CC(C)(C#N)c1cc(-c2ccnc3[nH]ncc23)cc(C(O)c2ccccc2)c1` (centres unmarked) [Compound 15], for which the pKi on PKC theta kinase is above 5.55.
With `CC(C)(C#N)c1cc(C(=O)c2ccccc2)cc(-c2ccnc3[nH]ncc23)c1` [Compound 16], the pKi at PKC theta kinase was above 5.55.
Regarding `CC(C)(C#N)c1cc(NCCN)cc(-c2ccnc3[nH]ncc23)c1` [Compound 17], the pKi is below 5.55 on PKC alpha kinase, above 6.30 at PKC theta kinase and below 5.55 at PKC delta kinase.
As to `CC(C)(C#N)c1cc(Br)cc(-c2ccnc3[nH]ncc23)c1` [Compound 18], the pKi on PKC alpha kinase was above 5.55; on PKC theta kinase it was above 7.30; at PKC delta kinase, above 5.55.
For the compound `CC(C)C(O)c1cc(-c2ccnc3[nH]ncc23)cc(C(C)(C)C#N)c1` (centres unmarked) [Compound 19], the results for the pKi on PKC alpha kinase, at PKC theta kinase and on PKC delta kinase were below 5.55, above 6.30 and below 5.55, respectively.
As for `CC(C)(C#N)c1cc(NC2CCNCC2)cc(-c2ccnc3[nH]ncc23)c1` [Compound 20], the pKi at PKC theta kinase was above 6.30.
Regarding `CC(C)(C#N)c1cc(NCCCN)cc(-c2ccnc3[nH]ncc23)c1` [Compound 21], the pKi at PKC alpha kinase is below 5.55; on PKC theta kinase it was above 6.30; at PKC delta kinase, below 5.55.
As to `CC(O)c1cc(-c2ccnc3[nH]ncc23)cc(C(C)(C)C#N)c1` (centres unmarked) [Compound 22], the pKi was below 5.55 at PKC alpha kinase, above 6.30 on PKC theta kinase and below 5.55 at PKC delta kinase.
For the compound `N#CCc1cccc(-c2ccnc3[nH]ncc23)c1` [Compound 23], the pKi on PKC theta kinase is above 6.30.
Still for that read-out and setting: to `CC(=O)c1cc(-c2ccnc3[nH]ncc23)cc(C(C)(C)C#N)c1` [Compound 24] belongs above 6.30; to `CNCc1cc(Br)cc(-c2ccnc3[nH]ncc23)c1` [Compound 25], above 6.30; to `O=C1CCc2cc(-c3ccnc4[nH]ncc34)ccc21` [Compound 26], above 5.55.
The same measure, in the same setting: to `OC1CCc2cc(-c3ccnc4[nH]ncc34)ccc21` (centres unmarked) [Compound 27] belongs above 5.55; to `O=C1CCc2ccc(-c3ccnc4[nH]ncc34)cc21` [Compound 28], above 6.30.
Consider `OC1CCc2ccc(-c3ccnc4[nH]ncc34)cc21` (centres unmarked) [Compound 29], for which the pKi at PKC theta kinase was below 5.55.
`CCC(C)(C#N)c1cc(Br)cc(-c2ccnc3[nH]ncc23)c1` (centres unmarked) [Compound 30]: the pKi on PKC alpha kinase is above 5.55; on PKC theta kinase, above 6.30; on PKC delta kinase, above 5.55.
In the case of `CC(C)(CN)c1cccc(-c2ccnc3[nH]ncc23)c1` [Compound 31, 2-(3-(1H-pyrazolo[3,4-b]pyridin-4-yl)phenyl)-2-methylpropan-1-amine], the values for the pKi on PKC alpha kinase, on PKC theta kinase and at PKC delta kinase were above 5.55, above 7.30 and above 6.30, respectively.
The corresponding values for `Cc1cc(-c2ccnc3[nH]ncc23)cc(C(C)(C)CN)c1` [Compound 32] are above 6.30, above 7.30 and above 6.30.
As for `CC(C)(CN)c1cc(-c2ccnc3[nH]ncc23)cc(N2CCCCC2)c1` [Compound 33], the pKi at PKC theta kinase is below 5.55.
Turning to `CC(C)(CN)c1cc(Br)cc(-c2ccnc3[nH]ncc23)c1` [Compound 34], the pKi on PKC alpha kinase was above 5.55; at PKC theta kinase, above 7.30; at PKC delta kinase it was above 6.30.
On to `CC(C)(CN)c1cc(-c2ccccc2)cc(-c2ccnc3[nH]ncc23)c1` [Compound 35], for which the pKi on PKC theta kinase was above 5.55.
With `C=Cc1cc(-c2ccnc3[nH]ncc23)cc(C(C)(C)CN)c1` [Compound 36], the pKi at PKC alpha kinase was above 5.55; at PKC theta kinase, above 6.30; at PKC delta kinase, above 5.55.
For the compound `CC(C)(CN)c1cc(C2=CCCCC2)cc(-c2ccnc3[nH]ncc23)c1` [Compound 37], at PKC theta kinase, the pKi is above 5.55.
Still for that read-out and setting: to `CC(C)(CN)c1cc(-c2ccc[nH]2)cc(-c2ccnc3[nH]ncc23)c1` [Compound 38] belongs above 6.30.
For `CC(O)c1cc(-c2ccnc3[nH]ncc23)cc(C(C)(C)CN)c1` (centres unmarked) [Compound 39], the pKi on PKC alpha kinase is below 5.55; on PKC theta kinase, above 6.30; on PKC delta kinase, below 5.55.
In the case of `CC(C)C(O)c1cc(-c2ccnc3[nH]ncc23)cc(C(C)(C)CN)c1` (centres unmarked) [Compound 43], at PKC theta kinase, the pKi is above 5.55.
In the case of `CC(C)(C#N)c1cc(-c2ccccc2)cc(-c2ccnc3[nH]ncc23)c1` [Compound 53, 2-(5-(1H-pyrazolo[3,4-b]pyridin-4-yl)biphenyl-3-yl)-2-methylpropanenitrile], the pKi on PKC theta kinase was above 5.55.
Still for that read-out and setting: to `CC(C)(C#N)c1cc(C2=CCCCC2)cc(-c2ccnc3[nH]ncc23)c1` [Compound 56] belongs below 5.55.
Still for that read-out and setting: to `CC(C)(C#N)c1cc(-c2ccnc3[nH]ncc23)cc(C2CCCCC2)c1` [Compound 58] belongs above 5.55; to `C/C=C/c1cc(CNC)cc(-c2ccnc3[nH]ncc23)c1` [Compound 60], above 5.55.
With `C#Cc1cc(-c2ccnc3[nH]ncc23)cc(C(C)(C)C#N)c1` [Compound 61], on PKC theta kinase, the pKi was above 6.30.
With `C=CCc1cc(CNC)cc(-c2ccnc3[nH]ncc23)c1` [Compound 63], the pKi at PKC theta kinase was above 6.30.
For `C=C(C)c1cc(-c2ccnc3[nH]ncc23)cc(C(C)(C)C#N)c1` [Compound 65], the pKi at PKC theta kinase was above 6.30.
Consider `CCC(C#N)(CC)c1cccc(-c2ccnc3[nH]ncc23)c1` [Compound 68], for which the values for the pKi on PKC alpha kinase and at PKC theta kinase were above 5.55 and above 6.30, respectively.
Consider `CC(C)(C)OC(=O)NCCNc1cc(-c2ccnc3[nH]ncc23)cc(C(C)(C)C#N)c1` [Compound 81], for which, at PKC theta kinase, the pKi was above 5.55.
Still for that read-out and setting: with `CC(C)(C#N)c1cc(NCCCNC(=O)OCc2ccccc2)cc(-c2ccnc3[nH]ncc23)c1` [Compound 82] the figure was above 5.55; with `CC(C)(C#N)c1cc(-c2ccnc3n[nH]cc23)ccc1Br` [Compound 83], above 5.55.
Regarding `Cc1cc(-c2ccnc3[nH]ncc23)cc(C2(CN)CCCC2)c1` [Compound 189], the pKi at PKC alpha kinase was above 5.55; on PKC theta kinase, above 7.30.
Consider `CCCc1cc(-c2ccnc3[nH]nc(C(F)(F)F)c23)cc(C2(C#N)CC2)c1` [Compound 313], for which the pKi on PKC alpha kinase and on PKC delta kinase was below 5.92 each time.
